Results taken from PMC337094 (BMC Biochemistry, 2003).
One block for each molecule: values may come before it.

How the values were obtained:
[1] = biological target: T1, riboflavin synthase of B. subtilis (Bacillus subtilis, UniProt P16440); experiment: […] NMR protein perturbation; assay type: binding; conditions: 20 mM phosphate pH 7.0, 100 mM KCl, 10% D2O, 11 °C
T1 sequence (P16440 1-215): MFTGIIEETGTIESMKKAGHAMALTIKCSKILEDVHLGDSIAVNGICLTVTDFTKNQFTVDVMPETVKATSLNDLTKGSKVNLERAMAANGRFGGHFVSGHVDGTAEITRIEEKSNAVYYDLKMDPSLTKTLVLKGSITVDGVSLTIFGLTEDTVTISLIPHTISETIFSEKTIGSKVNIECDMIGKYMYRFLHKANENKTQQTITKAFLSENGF

[2] = biological target: T2, riboflavin synthase of S. pombe (SSP-Rosy) (Schizosaccharomyces pombe, UniProt Q9Y7P0); experiment: […] NMR protein perturbation; assay type: binding; conditions: 20 mM phosphate pH 7.0, 100 mM KCl, 10% D2O, 11 °C
T2 sequence (Q9Y7P0 1-208): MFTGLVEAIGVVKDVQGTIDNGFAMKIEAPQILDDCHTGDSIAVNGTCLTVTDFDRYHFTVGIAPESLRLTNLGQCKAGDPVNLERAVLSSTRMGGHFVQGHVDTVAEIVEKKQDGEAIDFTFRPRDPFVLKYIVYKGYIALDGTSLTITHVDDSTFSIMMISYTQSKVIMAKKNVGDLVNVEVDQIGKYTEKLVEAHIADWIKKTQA

[3] = biological target: lumazine protein of P. leiognathi (Photobacterium leiognathi, UniProt Q06877); experiment: […] NMR protein perturbation; assay type: binding; conditions: 20 mM phosphate pH 7.0, 100 mM KCl, 10% D2O, 11 °C
[4] = biological target: T3, riboflavin synthase of E. coli (Escherichia coli, UniProt P0AFU8); experiment: […] NMR protein perturbation; assay type: binding; conditions: 20 mM phosphate pH 7.0, 100 mM KCl, 10% D2O, 11 °C
T3 sequence (P0AFU8 1-213): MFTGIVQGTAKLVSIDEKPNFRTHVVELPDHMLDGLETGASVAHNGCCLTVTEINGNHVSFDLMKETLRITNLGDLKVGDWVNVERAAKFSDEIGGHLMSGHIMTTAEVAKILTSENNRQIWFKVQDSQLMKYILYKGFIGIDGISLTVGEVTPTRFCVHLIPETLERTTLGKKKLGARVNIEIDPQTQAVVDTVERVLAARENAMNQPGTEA

[5] = biological target: T4, recombinant N-terminal domain of E. coli riboflavin synthase (Escherichia coli, UniProt P0AFU8); experiment: […] NMR protein perturbation; assay type: binding; conditions: 20 mM phosphate pH 7.0, 100 mM KCl, 10% D2O, 11 °C
T4 sequence (P0AFU8 1-97): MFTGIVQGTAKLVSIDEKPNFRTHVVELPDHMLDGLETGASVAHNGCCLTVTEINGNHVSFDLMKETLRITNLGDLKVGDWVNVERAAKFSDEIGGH

[6] = biological target: T2, riboflavin synthase of S. pombe (SSP-Rosy); experiment: […] NMR displacement of compound 6a; assay type: binding; conditions: 20 mM phosphate pH 7.0, 100 mM KCl, 10% D2O, 11 °C; data not shown
[7] = biological target: the molecule itself; experiment: AUC

Chain of lumazine protein of P. leiognathi (Q06877 whole entry): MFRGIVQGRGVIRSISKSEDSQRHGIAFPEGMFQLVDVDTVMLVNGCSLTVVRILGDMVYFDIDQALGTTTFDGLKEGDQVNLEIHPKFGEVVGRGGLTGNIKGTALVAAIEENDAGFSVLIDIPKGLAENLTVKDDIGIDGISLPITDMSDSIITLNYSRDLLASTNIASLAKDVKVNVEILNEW

19F NMR bound-ligand signal [3]: lumazine protein (Fig. 5A)
Molecule: O=c1[nH]c(=O)c2nc(C(F)(F)F)c(=O)n(C[C@H](O)[C@H](O)[C@H](O)CO)c2[nH]1 [compound 7, 6-trifluoromethyl-7-oxo-8-ribityllumazine]
19F NMR bound-ligand signal [1]: B. subtilis (Fig. 5D) show similar signal multiplicities
19F NMR bound-ligand signal [2]: in complex with riboflavin synthase of S. pombe shows four signals
19F NMR bound-ligand signal [4]: The riboflavin synthases of E. coli (Fig. 5C)
19F NMR bound-ligand signal [5]: show single and much narrower lines for the protein bound ligand

Molecule: Cc1cc2nc3c(=O)[nH]c(=O)nc-3n(C[C@H](O)[C@H](O)[C@H](O)CO)c2cc1C [compound 4, riboflavin]
19F NMR displacement of compound 6a [6]: could be displaced from S. pombe protein by addition of riboflavin

Molecule: O=c1[nH]c2c(c(=O)[nH]1)N=C(C(F)(F)F)[C@@](O)(C(F)(F)F)N2C[C@H](O)[C@H](O)[C@H](O)CO (single isomer, unassigned; epimer a) [6a, 6,7-bis(trifluoromethyl)-8-ribityllumazine hydrate (epimer A)]
19F NMR bound-ligand signal [1]: the riboflavin synthases (Figs. 6C,6D,6E) studied show multiple signals
19F NMR bound-ligand signal [2]: riboflavin synthase of S. pombe binds epimer A
19F NMR bound-ligand signal [3]: show single lines for each trifluoromethyl group of bound Compound 6a
19F NMR bound-ligand signal [4]: the riboflavin synthases (Figs. 6C,6D,6E) studied show multiple signals
19F NMR bound-ligand signal [5]: show single lines for each trifluoromethyl group of bound Compound 6a

B1: Riboflavin synthase of Schizosaccharomyces pombe (enzyme, UniProt Q9Y7P0 1-208, looked up)
chain: MFTGLVEAIGVVKDVQGTIDNGFAMKIEAPQILDDCHTGDSIAVNGTCLTVTDFDRYHFTVGIAPESLRLTNLGQCKAGDPVNLERAVLSSTRMGGHFVQGHVDTVAEIVEKKQDGEAIDFTFRPRDPFVLKYIVYKGYIALDGTSLTITHVDDSTFSIMMISYTQSKVIMAKKNVGDLVNVEVDQIGKYTEKLVEAHIADWIKKTQA
stoichiometry N [7]: 3
